# Experimental data published in patent US4571403A, “Antianginal medicated compound” (Institut Organicheskoi Khimii Imeni N.D. Zelinskogo …, priority 1984, dated 1986).
# “Also recorded” adds a separate entry of the source.
# What was measured:
# [1] = system: patients suffering from ischemic heart disease; experiment: clinical test in patients with ischemic heart disease; format: in vivo, human patients
# Protocol: There were studied 84 patients aged 29 to 77 (46 men and 38 women) suffering from ischemic heart disease.
# The patients with ischemic heart disease were classified by stages: stage 1-18 persons, stage 2-40 persons, stage […] (according to L. I. Fogelson, 1972). In 46 patients there was the attendant hypertonic disease of the second stage.
# The remoteness of the disease was varied from 6 months to 22 years. The preparation was administered perorally in doses of 0.6-0.9 g 3-4 times a day. The daily dose is 1.8-3.6 g. The treatment course was 7 to 60 days; after a 5-7 days' interval the treatment was resumed depending on its efficiency so that the total course duration was up to 6 months. The effectiveness of the treatment was evaluated by the dynamics of complaints, clinic chart, objective data of pulse and arterial pressure, electrocardiographic and biochemical characteristics.
# [2] = system: sympathetic nerves of heart and kidney; experiment: tonic and reflectorial bioelectric activity in sympathetic nerves of heart and kidney; format: in vivo; settings: cats
# Source text: In experiments on anesthetized (urethane+chloralose) and immobilized (succinylcholine bromide) cats (14 tests) there has been studied the effect of the preparation in various doses on the tonic and reflectorial bioelectric activity in sympathetic nerves of heart and kidney. Somatosympathetic reflexes are caused by electric irritation of afferent A- and C- fibers of the tibial nerve.
# [3] = system: activity of heart and hemodynamics; experiment: phase curve analysis of aortic blood flow: activity of heart and hemodynamics in anesthetized cats; format: in vivo; set-up: Maximum blood flow: unit not given here; settings: for Time of systolic ejaculation: background 0.14 ± 0.008; for Time of diastolic relaxation: background 0.22 ± 0.01; for Minute work: background 0.88 ± 0.09; for Systolic (beat) volume: background 1.93 ± 0.12; for Maximum blood flow: background 19.7 ± 2.1; for Maximum linear speed: background 35 ± 1.9; for Average arterial pressure: background 148 ± 7.6; for Pulse frequency: background 181 ± 5; for Minute volume: background 372 ± 26
# Source text: In experiments on cats and dogs under the general anesthesia conditions the volumetric flow rate of blood flow in the ascending part of the aortic arch has been recorded by the electromagnetic method using an electromagnetic blood flow meter and vessel sensors of appropriate size. On the basis of analysis of the phase curve of the blood flow, the main characteristics of heart activity and hemodynamics have been calculated. […] The averaged data of analysis of phase curves of the blood flow in cat's aorta under general anesthesia conditions (8 tests) are given in the Table hereinbelow.
# Effect of the preparation (250 mg/kg intravenously) on the
# activity of heart and basic characteristics of hemodynamics
# [4] = system: ischemic zone of myocardium; experiment: model of acute attack of stenocardia (Sekeresh's model) in anesthetized dogs; format: in vivo
# Source text: The effect of the preparation on the functional state of the ischemic center has been studied in experiments on dogs under the conditions of general anesthesia. The effects caused by the preparation have been studied on the model of an acute attack of stenocardia (Sekeresh's model). The functional state of the ischemic focus has been assessed through analysis of epicardial heart electrograms in the ischemic zone and adjacent regions. The stenocardiac attack is caused by way of a partial occlusion of the coronary artery (left descending artery) and including a high rhythm of heart contractions (up to 250 beats/minute) by way of electrical stimulation of the heart auricula. Under these conditions there take place changes of the heart electrograms typical for acute ischemia of myocardium.
# rats = experiment: chronical toxicity in rats, intraperitoneal; format: in vivo
# coronary blood flow = experiment: rate of coronary blood flow and oxygen absorption by myocardium in anesthetized cats; format: in vivo
# Protocol: At the same time, the content of oxyhemoglobin in the coronary venous blood is determined by the photometrical method and the absorption of oxygen by myocardium is calculated on the basis of the arterio-venous difference value.
# The effect duration varies within the range of from 5 to 10 minutes. With increasing the preparation dose up to 500 mg/kg, the intensity and duration of the effect are increased reaching respectively 108±12% and 30-40 minutes.
# Calculation of the amount of the heart-absorbed oxygen points to it explicit increase (29±2.3%).
# [5] = system: systemic arterial pressure; experiment: effect on arterial pressure in cats and dogs; format: in vivo
# Protocol: The effect of the preparation on the arterial pressure has been also studied. […] The average value of the maximum drop of pressure during the first 10 minutes after the administration is 8-10% of the initial level. In doses of 500 mg/kg the preparation causes hypotensive reaction with the intensity of 15-18% of the initial level at the duration of the effect of 20-30 minutes.
# [6] = patients with attendant hypertonic disease
# [7] = 5 minutes after 250 mg/kg intravenously
# [8] = 10 minutes after 250 mg/kg intravenously
# [9] = 20 minutes after 250 mg/kg intravenously
# [10] = 40 minutes after 250 mg/kg intravenously
# [11] = intraperitoneal 200 mg/kg for 6 months and 1,000 mg/kg for 1 month
# [12] = 50 mg/kg intravenously, cats and dogs
smiles,measurement,setting,value
"CN1C(=O)N(C)C2C1N(C)C(=O)N2C (stereo not drawn) [the preparation, 2,4,6,8-tetramethyl-2,4,6,8-tetraazobicyclo-/3,3,0/-octanedione-3,7]",potassium in plasma,"[1]; after treatment, before 3.82±0.16",3.45±0.08 mequiv/l
same,number of erythrocytes,"[1]; after treatment, before 4.6±0.3",5.3±0.3 mln in mm^3
same,content of total protein,"[1]; after treatment, before 7.73±0.1%",8.65±0.25%
same,content of lymphocytes,"[1]; after treatment, before 26.9±1.2%",31.0±2.8%
same,potassium in erythrocytes,"[1]; after treatment, before 65.7±5.7",80.2±5.2 mequiv/l
same,hemoglobin,"[1]; after treatment, before 82.7±2.6%",86.3±3.2%
same,cholesterol,"[1]; after treatment, before 294.0±16.4%",245±15.0 mg %
same,leucocytes,"[1]; after treatment, before 5,520±499","6,080±221 in mm^3"
same,content of prothrombin,[1]; during the treatment course,not changed
same,content of sodium in erythrocytes and plasma,"[1]; human, in vivo",not substantially changed
same,contraindications,"[1]; human, in vivo",No contraindications against the administration of the preparation have been revealed
same,patients with good therapeutic effect,"[1]; human, in vivo",77 % of the patients
same,remaining fractions of proteinogram,"[1]; human, in vivo",insignificant opposite-sign variations
same,side effects,"[1]; human, in vivo",Side effects are absent
same,day at which amelioration of the condition was observed,[1]; [6],2 to 5 days
same,pulse,[1]; [6],pulse normalization
same,minimal arterial pressure,"[1]; patients with attendant hypertonic disease, after treatment, before 102.2±1.2",89.7±4.0 mm Hg
same,maximum arterial pressure,"[1]; patients with attendant hypertonic disease, after treatment, before 180.8±3.9",161.4±3.8 mm Hg
same,electrogram,[1]; perorally 1.8-3.6 g daily,rhythm normalization
same,frequency and intensity of stenocardia attacks,[1]; perorally 1.8-3.6 g daily,reduced
same,metabolic processes,[1]; perorally 1.8-3.6 g daily,amelioration of metabolic processes
same,gamaglobulins,"[1]; proteinogram, after treatment, before 19.87±1.83%",22.54±2.31%
same,pressor responses caused by tetanic irritation of tibial nerve,[2]; 50 mg/kg,remain unchanged
same,tonic and reflectorial activity in sympathetic nerves,[2]; 50 mg/kg,does not noticeably change the character and intensity of tonic and reflectorial activity in sympathetic nerves
same,spontaneous activity and reflectorial responses,"[2]; 50 mg/kg, in a certain number of the experiments",slight amplification of spontaneous activity and facilitation of reflectorial responses
same,C-responses of the reflectorial discharges,[2]; 250-500 mg/kg,suppressed
same,inhibiting component of the reflectorial response,[2]; 250-500 mg/kg,amplification of the inhibiting component of the reflectorial response
same,tonic activity in sympathetic nerves,[2]; 250-500 mg/kg,weakly inhibited
same,heart function,[3]; 250 mg/kg intravenously,capable of increase the heart function
same,Time of systolic ejaculation,[3]; [7],0.12 ± 0.01 s
same,Time of diastolic relaxation,[3]; [7],0.22 ± 0.01 s
same,Minute work,[3]; [7],1.12 ± 0.15 kgm
same,Systolic (beat) volume,[3]; [7],2.22 ± 0.15 mL
same,Maximum blood flow,[3]; [7],30 ± 8.2
same,Maximum linear speed,[3]; [7],41 ± 2.7 cm/s
same,Average arterial pressure,[3]; [7],137 ± 6.9 mm Hg
same,Pulse frequency,[3]; [7],190 ± 6 b/min
same,Minute volume,[3]; [7],464 ± 38 mL/min
same,Time of systolic ejaculation,[3]; [8],0.11 ± 0.09 s
same,Time of diastolic relaxation,[3]; [8],0.21 ± 0.01 s
same,Minute work,[3]; [8],1.23 ± 0.11 kgm
same,Systolic (beat) volume,[3]; [8],2.34 ± 0.18 mL
same,Maximum blood flow,[3]; [8],34 ± 2.6
same,Maximum linear speed,[3]; [8],49 ± 2.8 cm/s
same,Average arterial pressure,[3]; [8],126 ± 8.1 mm Hg
same,Pulse frequency,[3]; [8],197 ± 5 b/min
same,Minute volume,[3]; [8],488 ± 43 mL/min
same,Time of systolic ejaculation,[3]; [9],0.13 ± 0.01 s
same,Time of diastolic relaxation,[3]; [9],0.20 ± 0.01 s
same,Minute work,[3]; [9],0.97 ± 0.08 kgm
same,Systolic (beat) volume,[3]; [9],2.01 ± 0.15 mL
same,Maximum blood flow,[3]; [9],28 ± 1.4
same,Maximum linear speed,[3]; [9],38 ± 2.3 cm/s
same,Average arterial pressure,[3]; [9],139 ± 7.4 mm Hg
same,Pulse frequency,[3]; [9],191 ± 7 b/min
same,Minute volume,[3]; [9],415 ± 32 mL/min
same,Time of systolic ejaculation,[3]; [10],0.13 ± 0.008 s
same,Time of diastolic relaxation,[3]; [10],0.23 ± 0.009 s
same,Minute work,[3]; [10],0.83 ± 0.10 kgm
same,Systolic (beat) volume,[3]; [10],1.97 ± 0.12 mL
same,Maximum blood flow,[3]; [10],21.4 ± 2.2
same,Maximum linear speed,[3]; [10],33. ± 3.1 cm/sec
same,Average arterial pressure,[3]; [10],146 ± 8.8 mm Hg
same,Pulse frequency,[3]; [10],183 ± 7 b/min
same,Minute volume,[3]; [10],397 ± 33 mL/min
same,ischemic changes of epicardial electrograms in the zone of ischemia,"[4]; 200 mg/kg, dogs",inhibited the development of ischemic changes of epicardial electrograms in the zone of ischemia
same,blood inflow into the ischemic zone (retrograde blood flow),[4]; dogs,considerably increase the blood inflow into the ischemic zone
same,activity compared with nonachlazine (sum of pharmacological effects),[4]; experimental model of acute myocardium ischemia,more active (as regards the sum of pharmacological effects) than the known preparation nonachlazine
same,accumulation,rats; [11],not accumulated
same,effect on hematoplasty and urination,rats; [11],does not affect hematoplasty and urination
same,histological changes in the visceral organs,"rats; kidney, liver, spleen, heart and the like, intraperitoneal 200 mg/kg 6 months, 1,000 mg/kg 1 month",no pathological changes in the visceral organs
same,arterio-venous difference relative to oxygen,coronary blood flow,lowering the arterio-venous difference relative to oxygen; also recorded: decrease in the arterio-venous difference relative to oxygen
same,content of oxyhemoglobin in coronary venous blood,coronary blood flow,increased content of oxyhemoglobin in coronary venous blood
same,increase of coronary blood flow versus absorption of oxygen by myocardium,coronary blood flow,surpasses the absorption of oxygen by myocardium
same,increase of coronary blood flow,"coronary blood flow; 50 mg/kg intravenously, average",32±5%
same,duration of coronary blood flow effect,coronary blood flow; 500 mg/kg,30 to 40 min
same,increase of coronary blood flow,coronary blood flow; 500 mg/kg,108±12%
same,increase of the amount of the heart-absorbed oxygen,coronary blood flow; calculated from arterio-venous difference,29±2.3%
same,arterial pressure reaction during the first 5 minutes,[5]; [12],uncertain hypertensive reaction
same,effect on the systemic arterial pressure,[5]; [12],no essential effect on the systemic arterial pressure
same,changes of the arterial pressure,"[5]; 250 mg/kg, cats and dogs",opposite-sign changes of the arterial pressure mainly of hypotensive character
same,average value of the maximum drop of pressure,"[5]; 250 mg/kg, first 10 minutes after administration, cats and dogs",8-10 % of the initial level
same,duration of the hypotensive effect,"[5]; 500 mg/kg, cats and dogs",20 to 30 min
same,hypotensive reaction intensity,"[5]; 500 mg/kg, cats and dogs",15-18 % of the initial level
same,influence on the adrenoreactive structures of the vessels,"[5]; dog, in vivo",does not influence the adrenoreactive structures of the vessels
same,depressor reactions on isoproterenol,[5]; isoproterenol 2.5 μg/kg,does not change the character
same,pressor reactions of arterial pressure on noradrenaline,[5]; noradrenaline 3 μg/kg,does not change the character
